Laboratory results reported in patent US12599672B2, “KRAS proteolysis targeting chimeras” (PAQ Therapeutics Inc., priority 2023, dated 2026).

Columns and labels:
Format in all cases: cell-based
KRAS G12D = biological target: T1, KRAS G12D (Homo sapiens, UniProt P01116, G12D); assay: KRAS G12D HiBit assay; conditions: AsPc-1-KRAS (G12D)-HiBit-KI cell, compound treatment for 24 hours, absolute DC50; class symbols
T1 construct: AsPc-1-KRAS (G12D)-HiBit-KI cell (Pharmaron); host or cells: AsPc-1-KRAS (G12D)-HiBit-KI cells (HiBiT knock-in at the endogenous KRAS locus)
How it was run: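 Cells were treated for 24 h with compounds in a 3-fold, 10-point dilution series from a 0.3 mM DMSO stock, then equilibrated 15 min at room temperature. KRAS G12D HiBiT levels were read by luminescence after lytic Nano-Glo HiBiT reagent with LgBiT; inhibition calculated relative to 0.1% DMSO high control.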

KRAS G12V = biological target: T2, KRAS G12V (Homo sapiens, UniProt P01116, G12V); assay: KRAS G12V HiBit assay; conditions: SW620-KRAS (G12V)-HiBit-KI cells, compound treatment for 24 hours, class symbols
T2 construct: SW620-KRAS (G12V)-HiBit-KI cell (Pharmaron); host or cells: SW620-KRAS (G12V)-HiBit-KI cells (HiBiT knock-in at the endogenous KRAS locus)
How it was run: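 HiBiT-tagged KRAS G12V cells treated 24 h with compound in a 3-fold, 10-point series (0.3 mM DMSO stock); lytic HiBiT reagent with LgBiT added after 15 min room-temperature equilibration. Degradation calculated against 0.1% DMSO high control.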

KRAS = biological target: T3, KRAS (Homo sapiens, UniProt P01116); assay: KRASamp MSD assay; conditions: KE39 (KRAS amplified) cells, treated with test compounds for 24 hr, MSD readout of KRAS degradation
T3 construct: endogenous in cells; host or cells: KE39 (KRAS amplified) cells
How it was run: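 KRAS-amplified KE39 cells treated with compound for 24 hr, then lysed in RIPA buffer with protease/phosphatase inhibitors. KRAS protein measured by MSD sandwich immunoassay against a recombinant WT KRAS standard curve; DC50 derived from curve fitting of degradation.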

T1 sequence (P01116 1-188 isoform P01116-2 G12D): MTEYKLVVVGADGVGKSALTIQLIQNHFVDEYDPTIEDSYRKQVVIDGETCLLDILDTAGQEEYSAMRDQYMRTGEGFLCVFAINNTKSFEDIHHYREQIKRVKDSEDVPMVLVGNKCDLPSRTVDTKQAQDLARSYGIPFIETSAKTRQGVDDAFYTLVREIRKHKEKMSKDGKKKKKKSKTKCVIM
T2 sequence (P01116 1-188 isoform P01116-2 G12V): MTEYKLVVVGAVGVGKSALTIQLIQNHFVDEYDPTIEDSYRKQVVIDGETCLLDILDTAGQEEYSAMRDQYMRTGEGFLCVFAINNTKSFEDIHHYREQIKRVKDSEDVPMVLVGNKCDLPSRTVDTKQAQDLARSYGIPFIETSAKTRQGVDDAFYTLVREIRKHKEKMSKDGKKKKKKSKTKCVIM
T3 sequence (P01116 1-188 isoform P01116-2): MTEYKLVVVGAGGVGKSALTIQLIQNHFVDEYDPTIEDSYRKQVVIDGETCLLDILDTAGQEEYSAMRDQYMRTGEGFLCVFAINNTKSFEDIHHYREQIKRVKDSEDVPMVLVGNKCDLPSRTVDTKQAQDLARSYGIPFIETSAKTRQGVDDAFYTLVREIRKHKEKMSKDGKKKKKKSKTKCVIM

DC50 (KRAS G12D) [nM]	DC50 (KRAS G12V) [nM]	DC50 (KRAS) [nM]	Compound
< 100	< 10	< 1	CCc1c(F)ccc2cc(O)cc(-c3ncc4c(N5CCC[C@@](C)(O)C5)nc(OC[C@@]56CCCN5[C@H](COC(=O)N5CCC7(CCC(CN8CCC(c9ccc%10c(c9)n(C)c(=O)n%10C9CCC(=O)NC9=O)CC8)CC7)C5)CC6)nc4c3F)c12 (stereo partly drawn) [Compound 457, ((3S,7aS)-7a-(((7-(8-ethyl-7-fluoro-3-hydroxynaphthalen-1-yl)-8-fluoro-4-((R)-3-hydroxy-3-methylpiperidin-1-yl)pyrido[4,3-d]pyrimidin-2-yl)oxy)methyl)hexahydro-1H-pyrrolizin-3-yl)methyl 8-((4-(1-(2,6-dioxopiperidin-3-yl)-3-methyl-2-oxo-2,3-dihydro-1H-benzo[d]imidazol-5-yl)piperidin-1-yl)methyl)-2-azaspiro[4.5]decane-2-carboxylate]
< 100	10 to 100	< 1	CCc1c(F)ccc2cc(O)cc(-c3ncc4c(N5CCC[C@@](C)(O)C5)nc(OC[C@@]56CCCN5[C@H](COc5ccc(CN7CCC(c8ccc9c(c8)n(C)c(=O)n9C8CCC(=O)NC8=O)CC7)cc5)CC6)nc4c3F)c12 (stereo partly drawn) [Compound 458, 3-(5-(1-(4-(((3S,7aS)-7a-(((7-(8-ethyl-7-fluoro-3-hydroxynaphthalen-1-yl)-8-fluoro-4-((R)-3-hydroxy-3-methylpiperidin-1-yl)pyrido[4,3-d]pyrimidin-2-yl)oxy)methyl)hexahydro-1H-pyrrolizin-3-yl)methoxy)benzyl)piperidin-4-yl)-3-methyl-2-oxo-2,3-dihydro-1H-benzo[d]imidazol-1-yl)piperidine-2,6-dione]
< 100	< 10	1 to 10	CCc1c(F)ccc2cc(O)cc(-c3ncc4c(N5CCC[C@@](C)(O)C5)nc(OC[C@@]56CCCN5[C@H](COC(=O)N5CCC7(CC5)CC(N5CC(c8ccc9c(c8)n(C)c(=O)n9C8CCC(=O)NC8=O)C5)C7)CC6)nc4c3F)c12 (stereo partly drawn) [Compound 464, ((3S,7aS)-7a-(((7-(8-ethyl-7-fluoro-3-hydroxynaphthalen-1-yl)-8-fluoro-4-((R)-3-hydroxy-3-methylpiperidin-1-yl)pyrido[4,3-d]pyrimidin-2-yl)oxy)methyl)hexahydro-1H-pyrrolizin-3-yl)methyl 2-(3-(1-(2,6-dioxopiperidin-3-yl)-3-methyl-2-oxo-2,3-dihydro-1H-benzo[d]imidazol-5-yl)azetidin-1-yl)-7-azaspiro[3.5]nonane-7-carboxylate]
< 100	< 10	< 1	CCc1c(F)ccc2cc(O)cc(-c3ncc4c(N5CCC[C@@](C)(O)C5)nc(OC[C@@]56CCCN5[C@H](COC(=O)N5CCC7(CCC(CN8CCC(c9ccc%10c(c9)n(C)c(=O)n%10C9CCC(=O)NC9=O)CC8)CC7)CC5)CC6)nc4c3F)c12 (stereo partly drawn) [Compound 466, ((3S,7aS)-7a-(((7-(8-ethyl-7-fluoro-3-hydroxynaphthalen-1-yl)-8-fluoro-4-((R)-3-hydroxy-3-methylpiperidin-1-yl)pyrido[4,3-d]pyrimidin-2-yl)oxy)methyl)hexahydro-1H-pyrrolizin-3-yl)methyl 9-((4-(1-(2,6-dioxopiperidin-3-yl)-3-methyl-2-oxo-2,3-dihydro-1H-benzo[d]imidazol-5-yl)piperidin-1-yl)methyl)-3-azaspiro[5.5]undecane-3-carboxylate]
< 100	< 10	< 1	CCc1c(F)ccc2cc(O)cc(-c3ncc4c(N5CCC[C@@](C)(O)C5)nc(OC[C@@]56CCCN5[C@H](COC(=O)N5CC7(CCC(N8CCC(c9ccc%10c(c9)n(C)c(=O)n%10C9CCC(=O)NC9=O)CC8)CC7)C5)CC6)nc4c3F)c12 (stereo partly drawn) [Compound 467, ((3S,7aS)-7a-(((7-(8-ethyl-7-fluoro-3-hydroxynaphthalen-1-yl)-8-fluoro-4-((R)-3-hydroxy-3-methylpiperidin-1-yl)pyrido[4,3-d]pyrimidin-2-yl)oxy)methyl)hexahydro-1H-pyrrolizin-3-yl)methyl 7-(4-(1-(2,6-dioxopiperidin-3-yl)-3-methyl-2-oxo-2,3-dihydro-1H-benzo[d]imidazol-5-yl)piperidin-1-yl)-2-azaspiro[3.5]nonane-2-carboxylate]

The next lines start with the compound.

Compound	DC50 (KRAS G12D) [nM]	DC50 (KRAS G12V) [nM]	DC50 (KRAS) [nM]
CCc1c(F)ccc2cc(O)cc(-c3cc4nc(OC[C@@]56CCCN5[C@H](COC(=O)N5CCC7(CC5)CC(N5CCC(c8ccc9c(c8)n(C)c(=O)n9C8CCC(=O)NC8=O)CC5)C7)CC6)nc(N5CCC[C@@](C)(O)C5)c4cn3)c12 (stereo partly drawn) [Compound 461, ((3S,7aS)-7a-(((7-(8-ethyl-7-fluoro-3-hydroxynaphthalen-1-yl)-4-((R)-3-hydroxy-3-methylpiperidin-1-yl)pyrido[4,3-d]pyrimidin-2-yl)oxy)methyl)hexahydro-1H-pyrrolizin-3-yl)methyl 2-(4-(1-(2,6-dioxopiperidin-3-yl)-3-methyl-2-oxo-2,3-dihydro-1H-benzo[d]imidazol-5-yl)piperidin-1-yl)-7-azaspiro[3.5]nonane-7-carboxylate]	< 100	< 10	< 1
CCc1c(F)ccc2cc(O)cc(-c3ncc4c(N5CCC[C@@](C)(O)C5)nc(OC[C@@]56CCCN5[C@H](COC(=O)N5CC7(CN(CC8CCN(c9ccc%10c(c9)n(C)c(=O)n%10C9CCC(=O)NC9=O)CC8)C7)C5)CC6)nc4c3F)c12 (stereo partly drawn) [Compound 462, ((3S,7aS)-7a-(((7-(8-ethyl-7-fluoro-3-hydroxynaphthalen-1-yl)-8-fluoro-4-((R)-3-hydroxy-3-methylpiperidin-1-yl)pyrido[4,3-d]pyrimidin-2-yl)oxy)methyl)hexahydro-1H-pyrrolizin-3-yl)methyl 6-((1-(1-(2,6-dioxopiperidin-3-yl)-3-methyl-2-oxo-2,3-dihydro-1H-benzo[d]imidazol-5-yl)piperidin-4-yl)methyl)-2,6-diazaspiro[3.3]heptane-2-carboxylate]	< 100	< 10	1 to 10
CCc1c(F)ccc2cc(O)cc(-c3ncc4c(N5CCC[C@@](C)(O)C5)nc(OC[C@@]56CCCN5[C@H](COC(=O)N5CCC7(CCC(N8CCC(c9ccc%10c(c9)n(C)c(=O)n%10C9CCC(=O)NC9=O)CC8)CC7)CC5)CC6)nc4c3F)c12 (stereo partly drawn) [Compound 465, ((3S,7aS)-7a-(((7-(8-ethyl-7-fluoro-3-hydroxynaphthalen-1-yl)-8-fluoro-4-((R)-3-hydroxy-3-methylpiperidin-1-yl)pyrido[4,3-d]pyrimidin-2-yl)oxy)methyl)hexahydro-1H-pyrrolizin-3-yl)methyl 9-(4-(1-(2,6-dioxopiperidin-3-yl)-3-methyl-2-oxo-2,3-dihydro-1H-benzo[d]imidazol-5-yl)piperidin-1-yl)-3-azaspiro[5.5]undecane-3-carboxylate]	< 100	< 10	< 1
CCc1cccc2cc(O)cc(-c3ncc4c(N5CCC[C@@](C)(O)C5)nc(OC[C@@]56CCCN5[C@H](COC(=O)N5CCC7(CC5)CC(N5CCC(c8ccc9c(c8)n(C)c(=O)n9C8CCC(=O)NC8=O)CC5)C7)CC6)nc4c3F)c12 (stereo partly drawn) [Compound 468, ((3S,7aS)-7a-(((7-(8-ethyl-3-hydroxynaphthalen-1-yl)-8-fluoro-4-((R)-3-hydroxy-3-methylpiperidin-1-yl)pyrido[4,3-d]pyrimidin-2-yl)oxy)methyl)hexahydro-1H-pyrrolizin-3-yl)methyl 2-(4-(1-(2,6-dioxopiperidin-3-yl)-3-methyl-2-oxo-2,3-dihydro-1H-benzo[d]imidazol-5-yl)piperidin-1-yl)-7-azaspiro[3.5]nonane-7-carboxylate]	< 100	< 10	< 1
CCc1c(F)ccc2cc(O)cc(-c3ncc4c(N5CCCC(F)(F)C5)nc(OC[C@@]56CCCN5[C@H](COC(=O)N5CC7(CC(N8CCC(c9ccc%10c(c9)n(C)c(=O)n%10C9CCC(=O)NC9=O)CC8)C7)C5)CC6)nc4c3F)c12 (stereo partly drawn) [Compound 469, ((3S,7aS)-7a-(((4-(3,3-difluoropiperidin-1-yl)-7-(8-ethyl-7-fluoro-3-hydroxynaphthalen-1-yl)-8-fluoropyrido[4,3-d]pyrimidin-2-yl)oxy)methyl)hexahydro-1H-pyrrolizin-3-yl)methyl 6-(4-(1-(2,6-dioxopiperidin-3-yl)-3-methyl-2-oxo-2,3-dihydro-1H-benzo[d]imidazol-5-yl)piperidin-1-yl)-2-azaspiro[3.3]heptane-2-carboxylate]	< 100	< 10	< 1
CCc1c(F)ccc2cc(O)cc(-c3ncc4c(N5CCCC(F)(F)C5)nc(OC[C@@]56CCCN5[C@H](COC(=O)N5CCC7(CC5)CC(N5CCC(c8ccc9c(c8)n(C)c(=O)n9C8CCC(=O)NC8=O)CC5)C7)CC6)nc4c3F)c12 (stereo partly drawn) [Compound 470, ((3S,7aS)-7a-(((4-(3,3-difluoropiperidin-1-yl)-7-(8-ethyl-7-fluoro-3-hydroxynaphthalen-1-yl)-8-fluoropyrido[4,3-d]pyrimidin-2-yl)oxy)methyl)hexahydro-1H-pyrrolizin-3-yl)methyl 2-(4-(1-(2,6-dioxopiperidin-3-yl)-3-methyl-2-oxo-2,3-dihydro-1H-benzo[d]imidazol-5-yl)piperidin-1-yl)-7-azaspiro[3.5]nonane-7-carboxylate]	< 100	< 10	< 1
